According to patent US20250381254A1, “Augmented Acid Alpha-Glucosidase For The Treatment Of Pompe Disease” (Amicus Therapeutics, Inc., priority 2015, published 2025):

Assay: in vivo
Conditions: both, Cambodian origin, cynomolgus monkey, in vivo
Description: Animals were acclimated to the study room for 18 (females) to 19 (males) days. On the final day of acclimation, animals weighed between 2.243 kg and 5.413 kg and were 2 to 3 years of age.
ATB200 is formulated in 25 mM sodium phosphate buffer, pH 6 containing 2.92 mg/mL sodium chloride, 20 mg/mL mannitol, and 0.5 mg/mL polysorbate 80 (formulation buffer). Test article (ATB200 or miglustat) and control article/vehicle (formulation buffer) were administered once every other week for 13 weeks, starting on Day 1 and ending on Day 85. ATB200 and the control article/vehicle were administered by 2 hour (±10 minute) intravenous (IV) infusion at 0 mg/kg (Group 1, control article), 50 mg/kg (Group 2), or 100 mg/kg (Groups 3 and 5). Miglustat was administered nasogastrically in sterile water for injection, USP, at 25 mg/kg (Group 2) or 175 mg/kg (Groups 3 and 4), 30 minutes (±2 minutes) prior to the start of the infusion for ATB200, when given in combination. The dosing volume across all groups was 10 mL/kg.
Parameters assessed during the in-life phase of the study included body weights, food consumption, clinical observations, detailed clinical observations, physical examinations, electrocardiography, ophthalmic assessments, clinical pathology (hematology, coagulation, serum chemistry), anti-drug antibody (ADA) assessment, neutralizing ADA assessment, urinalysis, and plasma toxicokinetics (TK) for miglustat and ATB200 activity and total protein. Terminal necropsy of animals was performed on Day 99 (14 days after the last dose administration). At necropsy, gross observations and organ weights were recorded, and tissues were collected for microscopic examination.

CCCCN1C[C@H](O)[C@@H](O)[C@H](O)[C@H]1CO [miglustat, (2R,3R,4R,5S)-1-butyl-2-(hydroxymethyl)piperidine-3,4,5-triol]
NOAEL at 13 weeks: 175 mg/kg
